Converted amounts (≈) assume the structure as drawn.
How the values were obtained:
Format in all cases: cell-based
[1] = test system: E. coli ATCC 25922; test: MIC by broth microdilution, E. coli ATCC 25922, no FBS; conditions: Escherichia coli, ATCC25922, 35° C., 18-24 h
Protocol: (§1) Minimal inhibitory concentrations (MIC) were determined by the broth microdilution method in accordance with the Clinical and Laboratory Standards Institute (CLSI) guidelines. In brief, organism suspensions were adjusted to a 0.5 McFarland standard to yield a final inoculum between 3×10^5 and 7×10^5 colony-forming units (CFU)/mL. Drug dilutions and inocula were made in sterile, cation adjusted Mueller-Hinton Broth (Beckton Dickinson). An inoculum volume of 100 μL was added to wells containing 100 μL of broth with 2-fold serial dilutions of drug. All inoculated microdilution trays were incubated in ambient air at 35° C. for 18-24 h. […] Performance of the assay was monitored by the use of laboratory quality-control strains and levofloxacin, a compound with a defined MIC spectrum, in accordance with CLSI guidelines.

[2] = test system: E. coli BW25113; test: MIC by broth microdilution, E. coli BW25113, no FBS; conditions: Escherichia coli, 35° C., 18-24 h
Protocol: as §1

[3] = test system: E. coli imp mutant; test: MIC by broth microdilution, E. coli imp mutant; conditions: Escherichia coli, read-out: MIC E. coli imp mutant
Protocol: as §1

[4] = test system: E. coli delta to IC mutant; test: MIC by broth microdilution, E. coli delta tolC mutant; conditions: Escherichia coli, read-out: MIC E. coli delta to IC mutant
Protocol: as §1

[5] = test system: S. aureus ATCC 29213; test: MIC by broth microdilution, S. aureus ATCC 29213; conditions: Staphylococcus aureus, ATCC29213; 35° C., 18-24 h
Protocol: as §1

[6] = test system: P. aeruginosa 209; test: MIC by broth microdilution, P. aeruginosa 209; conditions: Pseudomonas aeruginosa, 35° C., 18-24 h
Protocol: as §1

[7] = test system: P. aeruginosa 210 delta mexAB-OprM; test: MIC by broth microdilution, P. aeruginosa 210 delta mexAB-OprM; conditions: Pseudomonas aeruginosa, read-out: MIC P. aeruginosa 210 delta mexAB-OprM
Protocol: as §1

Structure (SMILES)	MIC [1] [µg/mL]	MIC [2] [µg/mL]	MIC [3] [µg/mL]	MIC [4] [µg/mL]	MIC [5] [µg/mL]	MIC [6] [µg/mL]	MIC [7] [µg/mL]
O=c1[nH]cnc(CNc2ccc(C#Cc3ccc(-c4nnn[nH]4)cc3)cc2)c1O [Compound 103]	> 32	> 32	> 32	1 to 8 (≈ 2.59 to 20.8 µM)	> 32	> 32	> 32
Cn1cc(O)c(=O)cc1CNC(=O)c1ccc(C#Cc2ccccc2)cc1 [Compound 94]	> 32	> 32	> 32	> 32	> 32	> 32	> 32
O=c1[nH]cnc(CNc2ccc(-c3ccccc3)cc2)c1O [Compound 96]	> 32	> 32	> 32	> 32	> 32	> 32	> 32
O=c1c(O)cncn1CCc1ccc(C#Cc2ccc(CN3CCOCC3)cc2)cc1 [Compound 73, 5-hydroxy-3-(4-((4-(morpholinomethyl)phenyl)ethynyl)phenethyl)-pyrimidin-4(3H)-one]		1 to 8 (≈ 2.41 to 19.3 µM)			> 32	> 32	> 32
O=C(NCCN1CCCC1)c1ccc(C#CC#Cc2ccc(NCc3nc[nH]c(=O)c3O)cc2)cc1 [Compound 75]	8 to 32 (≈ 16.6 to 66.5 µM)	1 to 8 (≈ 2.08 to 16.6 µM)	1 to 8 (≈ 2.08 to 16.6 µM)	< 1	> 32	> 32	> 32
CC(O)C(Cc1ccc(C#Cc2ccc(CN3CCOCC3)cc2)cc1)n1cncc(O)c1=O (stereo not drawn) [Compound 108]	> 32		8 to 32 (≈ 17.4 to 69.6 µM)	8 to 32 (≈ 17.4 to 69.6 µM)			
Cc1nc(C(=O)O)c(O)c(=O)n1CC(O)c1ccc(C#Cc2ccc(CN3CCOCC3)cc2)cc1 (stereo not drawn) [Compound 93]	> 32	> 32	> 32	> 32	> 32	> 32	> 32
O=C(c1ccc(C#CC#Cc2ccc(NCc3nc[nH]c(=O)c3O)cc2)cc1)N1CC(O)C1 [Compound 86]	< 1	< 1	< 1	< 1	> 32	> 32	> 32
O=c1[nH]cnc(CS(=O)(=O)c2ccc(C#Cc3ccc(CN4CCOCC4)cc3)cc2)c1O [Compound 102]	8 to 32 (≈ 17.2 to 68.7 µM)	8 to 32 (≈ 17.2 to 68.7 µM)	8 to 32 (≈ 17.2 to 68.7 µM)	8 to 32 (≈ 17.2 to 68.7 µM)	> 32	> 32	8 to 32 (≈ 17.2 to 68.7 µM)
CCN(CC)CCCNC(=O)c1ccc(C#CC#Cc2ccc(NCc3nc[nH]c(=O)c3O)cc2)cc1 [Compound 76]	8 to 32 (≈ 16.1 to 64.3 µM)	1 to 8 (≈ 2.01 to 16.1 µM)	1 to 8 (≈ 2.01 to 16.1 µM)	< 1	> 32	> 32	> 32
O=C(O)c1ccc(C#Cc2ccc(NCc3nc[nH]c(=O)c3O)cc2)cc1 [Compound 101]	> 32	> 32	> 32	1 to 8 (≈ 2.77 to 22.1 µM)	> 32	> 32	> 32
Cc1nc(CO)c(O)c(=O)n1CC(O)c1ccc(-c2ccccc2)cc1 (stereo not drawn) [Compound 92]	> 32				> 32	> 32	
Cc1nc(C(=O)O)c(O)c(=O)n1CC(O)c1ccc(C#Cc2ccccc2)cc1 (stereo not drawn) [Compound 90]	> 32	> 32	1 to 8 (≈ 2.56 to 20.5 µM)	8 to 32 (≈ 20.5 to 82 µM)	> 32	> 32	> 32
CN(C)C1CCN(C(=O)c2ccc(C#CC#Cc3ccc(NCc4nc[nH]c(=O)c4O)cc3)cc2)C1 (stereo not drawn) [Compound 100]	1 to 8 (≈ 2.08 to 16.6 µM)	1 to 8 (≈ 2.08 to 16.6 µM)	< 1	< 1	> 32	> 32	> 32
O=C(c1ccc(C#CC#Cc2ccc(NCc3nc[nH]c(=O)c3O)cc2)cc1)N1CCC[C@H]1CO [Compound 99]	> 32	1 to 8 (≈ 2.13 to 17.1 µM)	< 1	< 1	> 32	> 32	> 32
O=c1[nH]cnc(CN(CCO)c2ccc(C#Cc3ccc(CN4CCOCC4)cc3)cc2)c1O [Compound 113]	> 32		> 32	> 32			
O=c1c(O)cccn1C(CO)Cc1ccc(C#Cc2ccc(CN3CCOCC3)cc2)cc1 (stereo not drawn) [Compound 114, 3-hydroxy-1-(1-hydroxy-3-(4-((4-(morpholinomethyl)phenyl)ethynyl)phenyl)propan-2-yl)pyridin-2(1H)-one]	8 to 32 (≈ 18 to 72 µM)		1 to 8 (≈ 2.25 to 18 µM)	1 to 8 (≈ 2.25 to 18 µM)			
CCOC(=O)c1nc(C)n(CC(O)c2ccc(C#Cc3ccccc3)cc2)c(=O)c1O (stereo not drawn) [Compound 89]	> 32	> 32	8 to 32 (≈ 19.1 to 76.5 µM)	> 32	8 to 32 (≈ 19.1 to 76.5 µM)	> 32	> 32
O=C(O)c1ccc(C#CC#Cc2ccc(NCc3nc[nH]c(=O)c3O)cc2)cc1 [Compound 87]	1 to 8 (≈ 2.59 to 20.8 µM)	1 to 8 (≈ 2.59 to 20.8 µM)	1 to 8 (≈ 2.59 to 20.8 µM)	< 1	> 32	> 32	> 32
O=c1c(O)cncn1CCc1ccc(C#Cc2ccc(CN3CCOCC3)cc2)cc1 [Compound 105, 5-hydroxy-3-(4-((4-(morpholinomethyl)phenyl)ethynyl)phenethyl)pyrimidin-4(3H)-one]	8 to 32 (≈ 19.3 to 77 µM)		1 to 8 (≈ 2.41 to 19.3 µM)	1 to 8 (≈ 2.41 to 19.3 µM)			
Cc1nc(C(=O)O)c(O)c(=O)n1CC(=O)c1ccc(-c2ccccc2)cc1 [Compound 82, 1-(2-([1,1′-biphenyl]-4-yl)-2-oxoethyl)-5-hydroxy-2-methyl-6-oxo-1,6-dihydro pyrimidine-4-carboxylic acid]	> 32	> 32	1 to 8 (≈ 2.74 to 22 µM)	8 to 32 (≈ 22 to 87.8 µM)	> 32	> 32	> 32
N#CC(Cc1ccc(C#Cc2ccc(CN3CCOCC3)cc2)cc1)n1cncc(O)c1=O (stereo not drawn) [Compound 106]	> 32		8 to 32 (≈ 18.2 to 72.6 µM)	< 1			
CNC(=O)c1nc(C)n(CC(O)c2ccc(-c3ccccc3)cc2)c(=O)c1O (stereo not drawn) [Compound 91, 1-(2-([1,1′-biphenyl]-4-yl)-2-hydroxyethyl)-5-hydroxy-N,2-dimethyl-6-oxo-1,6-dihydropyrimidine-4-carboxamide]	> 32	> 32	> 32	8 to 32 (≈ 21.1 to 84.3 µM)	8 to 32 (≈ 21.1 to 84.3 µM)	> 32	> 32
O=c1[nH]cnc(CCc2ccc(C#Cc3ccc(CN4CCOCC4)cc3)cc2)c1O [Compound 104, 5-hydroxy-6-(4-((4-(morpholinomethyl)phenyl)ethynyl)phenethyl)pyrimidin-4(3H)-one]	8 to 32 (≈ 19.3 to 77 µM)		8 to 32 (≈ 19.3 to 77 µM)	1 to 8 (≈ 2.41 to 19.3 µM)			
COC(=O)c1ccc(C#CC#Cc2ccc(NCc3nc[nH]c(=O)c3O)cc2)cc1 [Compound 71, Methyl 4-((4-(((5-hydroxy-6-oxo-1,6-dihydropyrimidin-4-yl)methyl)amino)phenyl)buta-1,3-diyn-1-yl)benzoate]	> 32	> 32	> 32	> 32	> 32	> 32	> 32
CC(C)(O)C(Cc1ccc(C#Cc2ccc(CN3CCOCC3)cc2)cc1)c1nc[nH]c(=O)c1O (stereo not drawn) [Compound 112]	8 to 32 (≈ 16.9 to 67.6 µM)		1 to 8 (≈ 2.11 to 16.9 µM)	< 1			
CC(=O)C(Cc1ccc(C#Cc2ccc(CN3CCOCC3)cc2)cc1)n1cncc(O)c1=O (stereo not drawn) [Compound 107]	> 32		> 32	8 to 32 (≈ 17.5 to 69.9 µM)			
